This is an account of results in patent US12186317B2, “Inhibitors of alpha-amino-beta-carboxymuconic acid semialdehyde decarboxylase” (TES Pharma S.r.l., priority 2018, dated 2025).

The experiment has as its target T1, hACMSD (ACMSD1) (Homo sapiens, UniProt Q8TDX5).
T1 construct: made in house; host or cells: Pichia pastoris
Nature of the experiment: Determination of ACMSD1 inhibition, spectrophotometrical in vitro assay (conversion of 3OH-anthranilic acid into ACMS). The format is biochemical. To be noted: HAA concentration of 10 μM; recombinant ACMSD1 from Pichia pastoris; 25° C.; absorbance at 360 nm. How it is done:
The activity of compounds as inhibitors of ACMSD1 is determined in a spectrophotometrical in vitro assay. The pre-assay mixture is incubated and a compound of Formula (I) or (II), or a pharmaceutically acceptable salt thereof, and ACMSD1 solution is then added. The effect of ACMS concentration on the enzyme activity is investigated by varying 3-hydroxyanthranilic acid (30H-HA) concentration in the pre-assay mixture. Kinetic parameters are calculated from the initial velocity data using a Lineweaver-Burk plot.
The pre-assay mixture consisting of 3-hydroxyanthranilic acid (30H-HA), 3-hydroxyanthranilic acid, 3,4-diOxygenase (HAO), and a dialyzed crude extract of E. coli BL21 (DE3) cells expressing the recombinant enzyme, was incubated at 25° C. with monitoring of the increase in absorbance at 360 nm due to the formation of ACMS from 30H-HA. After the reaction was completed within ˜2 mins, an aliquot of ACMSD1 solution (prepared and purified from Pichia pastoris overexpressing the recombinant enzyme) was added, and the decrease in absorbance at 360 nm was followed at 15 second intervals. The effect of ACMS concentration on the enzyme activity was investigated by varying 30H-HA concentration from 2 to 20 μM. Kinetic parameters were calculated from the initial velocity data by using the Lineweaver-Burk plot.
The rate of the decrease in absorbance caused by ACMSD1 was calculated by subtracting that of the control reaction mixture without ACMSD from that described above. One unit of ACMSD activity was indicated as the amount of enzyme that converts 1 mmol of ACMS per minute at 25° C.
The enzymatic activity was determined at a HAA concentration of 10 μM in the presence of the compounds in Table 1 below. […] In Table 1, A is <0.1 μM; B is 0.1 to 1 μM; C is 1 to 10 μM; and D is >10 μM.

T1 sequence (Q8TDX5 whole entry): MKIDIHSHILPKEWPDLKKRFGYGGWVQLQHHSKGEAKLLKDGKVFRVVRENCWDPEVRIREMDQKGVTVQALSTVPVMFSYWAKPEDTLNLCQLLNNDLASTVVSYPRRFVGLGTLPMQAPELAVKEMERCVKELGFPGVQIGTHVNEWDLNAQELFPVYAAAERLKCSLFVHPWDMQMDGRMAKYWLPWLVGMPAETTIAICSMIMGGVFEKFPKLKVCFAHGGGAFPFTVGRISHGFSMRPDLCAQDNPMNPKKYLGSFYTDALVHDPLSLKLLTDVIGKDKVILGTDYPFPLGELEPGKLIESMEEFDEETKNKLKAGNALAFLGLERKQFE

A word on the IC50: it is the point on the concentration scale where inhibition reaches its midpoint. In the case of `CCOC(=O)Cc1cccc(CSc2nc(-c3cccs3)c(C#N)c(=O)[nH]2)c1` [I-1, [3-(5-Cyano-6-oxo-4-thiophen-2-yl-1,6-dihydro-pyrimidin-2-ylsulfanylmethyl)-phenyl]-acetic acid ethyl ester], the IC50 lay within 1 to 10 µM.
The same measure for `N#Cc1c(-c2cccs2)nc(SCc2cccc(C(N)=O)c2)[nH]c1=O` [I-2, 3-(5-Cyano-6-oxo-4-thiophen-2-yl-1,6-dihydro-pyrimidin-2-ylsulfanylmethyl)-benzamide]: 0.1 to 1 µM; for `N#Cc1c(-c2cccs2)nc(SCc2cccc(-c3cc(F)c(O)c(F)c3)c2)[nH]c1=O` [I-3, 2-({[3-(3,5-difluoro-4-hydroxyphenyl)phenyl]methyl}sulfanyl)-6-oxo-4-(thiophen-2-yl)-1,6-dihydropyrimidine-5-carbonitrile]: less than 0.1 µM; for `COc1nc(SCc2cccc(CC(=O)O)c2)nc(-c2cccs2)c1C#N` [I-4, [3-(5-Cyano-4-methoxy-6-thiophen-2-yl-pyrimidin-2-ylsulfanylmethyl)-phenyl]-acetic acid]: 1 to 10 µM.
Under `N#Cc1c(Br)nc(SCc2cccc(CC(=O)O)c2)nc1-c1cccs1` [I-5, [3-(4-Bromo-5-cyano-6-thiophen-2-yl-pyrimidin-2-ylsulfanylmethyl)-phenyl]-acetic acid] stands 0.1 to 1 µM; under `N#Cc1c(NC2CC2)nc(SCc2cccc(CC(=O)O)c2)nc1-c1cccs1` [I-6, [3-(5-Cyano-4-cyclopropylamino-6-thiophen-2-yl-pyrimidin-2-ylsulfanylmethyl)-phenyl]-acetic acid], 1 to 10 µM; under `N#Cc1c(N)nc(SCc2cccc(CC(=O)O)c2)nc1-c1cccs1` [I-7, [3-(4-Amino-5-cyano-6-thiophen-2-yl-pyrimidin-2-ylsulfanylmethyl)-phenyl]-acetic acid], 0.1 to 1 µM.
Consider `N#Cc1cnc(SCc2cccc(CC(=O)O)c2)nc1-c1cccs1` [I-8, [3-(5-Cyano-6-thiophen-2-yl-pyrimidin-2-ylsulfanylmethyl)-phenyl]-acetic acid], for which the IC50 lay within 0.1 to 1 µM.
With `CNc1nc(SCc2cccc(CC(=O)O)c2)nc(-c2cccs2)c1C#N` [I-9, [3-(5-Cyano-4-methylamino-6-thiophen-2-yl-pyrimidin-2-ylsulfanylmethyl)-phenyl]-acetic acid], the IC50 lay within 0.1 to 1 µM.
Take `CNc1nc(SCc2cccc(C(=O)O)c2)nc(-c2cccs2)c1C#N` [I-10, 3-(5-Cyano-4-methylamino-6-thiophen-2-yl-pyrimidin-2-ylsulfanylmethyl)-benzoic acid]: the IC50 fell in the range of 1 to 10 µM.
The same measure for `N#Cc1cccc(CSc2nc(-c3cccs3)c(C#N)c(=O)[nH]2)c1` [I-11, 2-(3-Cyano-benzylsulfanyl)-6-oxo-4-thiophen-2-yl-1,6-dihydro-pyrimidine-5-carbonitrile]: 1 to 10 µM.
Regarding `N#Cc1c(-c2cccs2)nc(SCc2cccc(CCO)c2)[nH]c1=O` [I-12, 2-[3-(2-Hydroxy-ethyl)-benzylsulfanyl]-6-oxo-4-thiophen-2-yl-1,6-dihydropyrimidine-5-carbonitrile], the IC50 lay in the range of 1 to 10 µM.
On to `N#CCc1cccc(CSc2nc(-c3cccs3)c(C#N)c(=O)[nH]2)c1` [I-13, 2-(3-Cyanomethyl-benzylsulfanyl)-6-oxo-4-thiophen-2-yl-1,6-dihydro-pyrimidine-5-carbonitrile], for which the IC50 fell in the range of 1 to 10 µM.
On to `Cn1nnc(-c2cccc(CSc3nc(-c4cccs4)c(C#N)c(=O)[nH]3)c2)n1` [I-14, 2-[3-(2-Methyl-2H-tetrazol-5-yl)-benzylsulfanyl]-6-oxo-4-thiophen-2-yl-1,6-dihydro-pyrimidine-5-carbonitrile], for which the IC50 was 1 to 10 µM.
For `N#Cc1c(-c2cccs2)nc(SCc2cccc(CC(=O)O)c2)nc1N1CCOCC1` [I-15, [3-(5-Cyano-4-morpholin-4-yl-6-thiophen-2-yl-pyrimidin-2-ylsulfanylmethyl)-phenyl]-acetic acid], the IC50 lay in the range of 1 to 10 µM.
Turning to `N#Cc1c(-c2cccs2)nc(SCc2cccc(CC(=O)O)c2)nc1N1CCNCC1` [I-16, [3-(5-Cyano-4-piperazin-1-yl-6-thiophen-2-yl-pyrimidin-2-ylsulfanylmethyl)-phenyl]-acetic acid], the IC50 was more than 10 µM.
For the compound `CCOC(=O)Cc1cccc(CSc2nc(=O)c(C#N)c(-c3cccs3)n2C)c1` [I-17, [3-(5-Cyano-1-methyl-4-oxo-6-thiophen-2-yl-1,4-dihydro-pyrimidin-2-ylsulfanylmethyl)-phenyl]-acetic acid ethyl ester], the IC50 was more than 10 µM.
Turning to `N#Cc1c(-c2cccs2)nc(SCc2cccc(S(N)(=O)=O)c2)[nH]c1=O` [I-18, 3-(5-Cyano-6-oxo-4-thiophen-2-yl-1,6-dihydro-pyrimidin-2-ylsulfanylmethyl)-benzenesulfonamide], the IC50 was 0.1 to 1 µM.
`N#Cc1c(-c2ccccc2)cc(=O)[nH]c1SCc1cccc(CC(=O)O)c1` [I-19, [3-(3-Cyano-6-oxo-4-phenyl-1,6-dihydro-pyridin-2-ylsulfanylmethyl)-phenyl]-acetic acid]: the IC50 is less than 0.1 µM.
The same measure for `N#Cc1c(-c2cccs2)cc(=O)[nH]c1SCc1cccc(CC(=O)O)c1` [I-20, [3-(3-Cyano-6-oxo-4-thiophen-2-yl-1,6-dihydro-pyridin-2-ylsulfanylmethyl)-phenyl]-acetic acid]: less than 0.1 µM.
`N#Cc1c(SCc2cccc(CC(=O)O)c2)[nH]c(=O)c(C#N)c1-c1cccs1` [I-21, [3-(3,5-Dicyano-6-oxo-4-thiophen-2-yl-1,6-dihydro-pyridin-2-ylsulfanylmethyl)-phenyl]-acetic acid]: the IC50 is less than 0.1 µM.
On to `N#Cc1c(SCc2cccc(-c3nnn[nH]3)c2)[nH]c(=O)c(C#N)c1-c1cccs1` [I-22, 2-Oxo-6-[3-(1H-tetrazol-5-yl)-benzylsulfanyl]-4-thiophen-2-yl-1,2-dihydro-pyridine-3,5-dicarbonitrile], for which the 50% inhibitory concentration (IC50) was less than 0.1 µM.
On to `N#Cc1c(Cc2ccccc2)cc(=O)[nH]c1SCc1cccc(CC(=O)O)c1` [I-23, [3-(4-Benzyl-3-cyano-6-oxo-1,6-dihydro-pyridin-2-ylsulfanylmethyl)-phenyl]-acetic acid], for which the IC50 was in the range of 1 to 10 µM.
Under `N#Cc1c(-c2cccs2)nc(SCC(=O)O)[nH]c1=O` [I-24, (5-Cyano-6-oxo-4-thiophen-2-yl-1,6-dihydro-pyrimidin-2-ylsulfanyl)-acetic acid] stands 1 to 10 µM; under `N#Cc1c(-c2cccs2)nc(SCc2nnn[nH]2)[nH]c1=O` [I-25, 6-Oxo-2-(1H-tetrazol-5-ylmethylsulfanyl)-4-thiophen-2-yl-1,6-dihydro-pyrimidine-5-carbonitrile], less than 0.1 µM; under `O=c1cc(C(F)(F)F)nc(SCc2nnn[nH]2)[nH]1` [I-26, 2-(1H-Tetrazol-5-ylmethylsulfanyl)-6-trifluoromethyl-3H-pyrimidin-4-one], less than 0.1 µM.
The same measure for `O=C(O)CSc1nc(C(F)(F)F)cc(=O)[nH]1` [I-27, (6-Oxo-4-trifluoromethyl-1,6-dihydro-pyrimidin-2-ylsulfanyl)-acetic acid]: 0.1 to 1 µM; for `O=C(O)Cc1cccc(CSc2nc(C(F)(F)F)cc(=O)[nH]2)c1` [I-28, [3-(6-Oxo-4-trifluoromethyl-1,6-dihydro-pyrimidin-2-ylsulfanylmethyl)-phenyl]-acetic acid]: 0.1 to 1 µM.
As for `N#Cc1c(Cc2ccccc2)nc(SCC(=O)O)[nH]c1=O` [I-30, (4-Benzyl-5-cyano-6-oxo-1,6-dihydro-pyrimidin-2-ylsulfanyl)-acetic acid], the IC50 was 0.1 to 1 µM.
As for `O=C(O)c1cccc(CSc2nc(C(F)(F)F)cc(=O)[nH]2)c1` [I-31, 3-(6-Oxo-4-trifluoromethyl-1,6-dihydro-pyrimidin-2-ylsulfanylmethyl)-benzoic acid], the IC50 lay within 1 to 10 µM.
Under `N#Cc1c(Cc2ccccc2)nc(SCc2nnn[nH]2)[nH]c1=O` [I-32] stands less than 0.1 µM; under `N#Cc1c(Cc2ccccc2)nc(SCc2cccc(CC(=O)O)c2)[nH]c1=O` [I-33, [3-(4-Benzyl-5-cyano-6-oxo-1,6-dihydro-pyrimidin-2-ylsulfanylmethyl)-phenyl]-acetic acid], less than 0.1 µM.
The same measure for `N#Cc1c(Cc2ccccc2)nc(SCc2cccc(-c3nnn[nH]3)c2)[nH]c1=O` [I-34, 4-Benzyl-6-oxo-2-[3-(1H-tetrazol-5-yl)-benzylsulfanyl]-1,6-dihydro-pyrimidine-5 carbonitrile]: less than 0.1 µM.
The same measure for `N#Cc1c(Cc2ccccc2)nc(SCc2cccc(C(=O)O)c2)[nH]c1=O` [I-35, 3-(4-Benzyl-5-cyano-6-oxo-1,6-dihydro-pyrimidin-2-ylsulfanylmethyl)-benzoic acid]: 0.1 to 1 µM; for `N#Cc1c(C(F)(F)F)cc(=O)[nH]c1SCc1cccc(CC(=O)O)c1` [I-36, [3-(3-cyano-6-oxo-4-trifluoromethyl-1,6-dihydro-pyridin-2-ylsulfanylmethyl)-phenyl]-acetic acid]: 0.1 to 1 µM; for `N#Cc1c(-c2cccs2)nc(SCCC(=O)O)[nH]c1=O` [I-37]: 1 to 10 µM.
